Data taken from US20260176249A1, “PROTEIN KINASE INHIBITOR, PREPARATION METHOD THEREFOR, AND APPLICATION THEREOF” (SHANDONG LUYE PHARMACEUTICAL CO., LTD., priority 2021, published 2026).
Where two headings read alike, the source gives them in different places.

Legend:
PLK1 kinase = target: T1, PLK1 kinase (Homo sapiens, UniProt P53350); assay: Inhibitory activity on PLK1 kinase; type: biochemical; conditions: for IC50: PLK1 kinase, highest concentration 1 μM, 10 points, read-out: IC50; for Imax: maximum effect caused by the compound at the test concentration
T1 construct: purchased Carnabio (Carna Biosciences) 05-157
T1 sequence (P53350 whole entry): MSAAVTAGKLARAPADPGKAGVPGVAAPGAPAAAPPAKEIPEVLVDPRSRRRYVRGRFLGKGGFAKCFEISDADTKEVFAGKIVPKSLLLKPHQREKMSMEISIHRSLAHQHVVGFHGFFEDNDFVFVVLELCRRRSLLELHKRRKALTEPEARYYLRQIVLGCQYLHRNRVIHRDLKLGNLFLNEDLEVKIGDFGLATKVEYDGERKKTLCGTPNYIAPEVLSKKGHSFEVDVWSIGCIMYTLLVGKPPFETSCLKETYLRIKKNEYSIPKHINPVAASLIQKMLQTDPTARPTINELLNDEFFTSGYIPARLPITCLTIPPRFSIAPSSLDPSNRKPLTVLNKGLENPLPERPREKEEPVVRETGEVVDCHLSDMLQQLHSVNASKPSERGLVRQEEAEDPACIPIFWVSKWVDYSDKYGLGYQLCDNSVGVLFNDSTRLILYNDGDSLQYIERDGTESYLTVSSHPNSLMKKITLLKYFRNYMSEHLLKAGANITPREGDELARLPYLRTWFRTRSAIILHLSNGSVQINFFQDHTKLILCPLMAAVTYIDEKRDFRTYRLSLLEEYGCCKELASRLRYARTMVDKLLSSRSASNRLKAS
Procedure: Detection solution PerkinElmer #TRF0218-M
Detection instrument PerkinElemer EnVision
a. Using the Echo machine, the compounds to be tested were diluted by 1:3 on a 384-well plate, and the highest concentration was 1 μM, with a total of 10 concentration points, and each concentration was tested in duplicate wells.
b. 5 μL/well of PLK1 kinase and peptide substrate mixture were added to the assay plate (containing controls).
d. The reaction was initiated by adding 5 μL/well of ATP solution;
e. The assay plate was centrifuged at 1000 rpm for about 15 seconds, a film was used to seal the assay plate which was incubated at 23° C. for a period of time;
f. A detection solution was added to all wells of the assay plate;
g. The assay plate was centrifuged at 1000 rpm for approximately 15 seconds, a film was used to seal the assay plate which was incubated at 23° C. for 60 min.
h. The assay plate was read on EnVision. The test results were analyzed using XLFIT5 software.

HCT116 cells = assay: Inhibitory activity on HCT116 cell proliferation (ATPlite); type: cell-based; conditions: Homo sapiens
Procedure: Cell culture medium: RPMI1640+10% FBS (GBICO)
Cell culture plate: 96-well plate (Shanghai Jingan Biotechnology Co., Ltd.)
Detection kit: ATPlite 1step Luminescence (PerkinElmer)
Detection instrument: BioTek multifunctional microplate reader
2. Test method: HCT116 cells in the logarithmic growth phase were seeded into a white-wall clear-bottom 96-well plate at a density of 720 cells per well, and cultured overnight in a 37° C., 5% CO2 incubator. […] After adding the drug, culturing was continued for 72 h in a 37° C., 5% CO2 incubator.
GraphPad Prism 7.0 was used to process the data, the cell inhibition rate curve was obtained and IC50 was calculated.

[1] = Permeability and efflux transporter substrate evaluation in Caco-2 cells; type: in vitro ADME; set-up: Papp A→B at 120 min / Papp B→A at 120 min / efflux ratio at 120 min / Papp at 120 min: dose or concentration left out as unconfirmed; conditions: human; for efflux ratio at 120 min / Papp at 120 min: Caco-2, pH 7.4; for Papp at 120 min: read-out: Classification Permeability; for Papp A→B at 120 min / Papp B→A at 120 min: pH 7.4, pH 7.40; for Papp A→B at 120 min: Caco-2, apical to basolateral; for Papp B→A at 120 min: Caco-2, basolateral to apical
Procedure: (§1) The cells were cultured in a carbon dioxide incubator for 21-28 days before being used for transport experiments. During this period, the culture medium was changed every four to five days.
(§2) This project uses Hank's balanced salt buffer (pH 7.40±0.05) containing 10 mM HEPES as the transport buffer. The culture medium was removed from the culture plate and the cells were washed twice with preheated transport buffer (approximately 75 μL and 40 mL of transport buffer for each apical well and basolateral receiver plate respectively). The donor solution and receiver solution were added to the corresponding cell plate wells (75 and 250 μL for each apical and basolateral well respectively), and the bidirectional transport experiment was started (apical to basolateral (A-B) and basolateral to apical (B-A)). The test concentration of the test substance was […], and two replicate wells were made for each dosing concentration. The test concentration of Digoxin was […], with dosing bidirectionally; the test concentrations of nadolol and metoprolol were both […], and they were dosed in one direction (A-B direction), and two replicate wells were made for each of the three control compounds.
(§3) The initial donor solution is the TO sample. After adding the sample, it was mixed with the transport buffer and stop solution in a certain proportion.
(§4) All samples were vortexed, and then centrifuged at 3220×g for 20 min at 20° C. A proper volume of supernatant was transferred to a sample assay plate, and the sample was stored at 2-8° C. if it was not analyzed immediately after the plate was sealed, and LC MS/MS method was used for analysis.
(§5) The Lucifer Yellow Rejection Assay was used to test the integrity of the Caco-2 cell layer.
(§6) The following formulas were used to calculate the apparent permeability coefficient (Papp, cm/s), efflux ratio (ER), and solution recovery (%) (% Solution Recovery).
(§7) [formula] [formula] [formula] • VR is the volume of the receiver side solution (side A is 0.075 mL, side B is 0.25 mL); Area is the relative surface area of the cell monolayer (0.0804 cm^2); Time is the incubation time (7200 s); C0 is the initial concentration (nM) of the test substance at the donor side or the peak area ratio of the control compound; VD is the volume of the donor side (side A is 0.075 mL, side B is 0.25 mL); CD and CR are the final concentration (nM) of the test substance at the donor side and the receiver side respectively or the peak area ratio of the control compound; • Lucifer yellow transmittance rate (% Lucifer Yellow) is calculated using the following formula:
(§8) [formula] • RFUApical and RFUBasolateral are the relative fluorescence intensity of lucifer yellow at the apical and basolateral sides respectively. VApical and VBasolateral are the sample loading volumes at the apical and basolateral sides respectively (0.075 and 0.25 mL respectively).

Caco-2 cells = assay: as above; type: in vitro ADME; set-up: Papp A→B at 120 min / Papp B→A at 120 min / efflux ratio at 120 min / Papp at 120 min: dose or concentration left out as unconfirmed; conditions: Caco-2
Procedure: as §1, §2, §3, §4, §5, §6, §7, §8

[2] = Metabolic stability in mouse liver microsomes; type: in vitro ADME
Procedure: (§9) a. Preparation of phosphate buffer: The phosphate buffer powder was dissolved in 100 mL of pure water to prepare a phosphate buffer solution with a pH of 7.4 and a concentration of 100 mM, which was stored in a 4° C. refrigerator for later use.
(§10) b. All samples as well as the reference testosterone were dissolved in DMSO to obtain a 10 mM stock solution. The 10 mM stock solution was diluted to 100 μM with acetonitrile to obtain a working solution for later use.
(§11) c. Preparation of liver microsome working solution: Each of the mouse, rat and human liver microsome stock solutions (at concentration of 20 mg/mL) was taken and diluted to 0.56 mg/mL with 100 mM phosphate buffer solution to obtain the liver microsome working solution.
(§12) d. Preparation of solution: An appropriate amount of MgCl2 was weighed and used to prepare a MgCl2 solution at a concentration of 60 mM using 100 mM phosphate buffer solution. An appropriate amount of NADPH was weighed and used to prepare a NADPH solution at a concentration of 20 mM using 100 mM phosphate buffer solution. An equal volume of 60 mM MgCl2 solution was added to prepare an NADPH working solution containing 10 mM NADPH and 30 mM MgCl2. An acetonitrile solution containing 20 ng/mL tolbutamide was prepared as the stop solution.
(§13) e. Liver microsome incubation: 2 μL of each compound and the positive drug testosterone working solution were added to 178 μL of liver microsome working solution (0.56 mg/mL), mixed gently, and pre-incubated in a vibrating constant temperature water bath pot at 37° C. for 10 min. After adding 20 μL of NADPH working solution, the mixture was placed in a vibrating constant temperature water bath pot at 37° C. and timed incubation was started for 5, 10, 20, 30 and 60 min.
(§14) f. Stopping reaction: After the corresponding time of incubation, 400 μL of stop solution was added to stop the reaction, and then the sample was immediately shaken for 1 min. The sample was centrifuged at 13500 rpm for 10 min at 10° C. After centrifugation, the supernatant was removed, diluted with water according to the needs of each compound, and analyzed by LC-MS. For the 0-minute sample, the stop solution was first added and mixed evenly with the liver microsomes, and then the NADPH working solution was added. For the negative control sample, 20 μL of 30 mM MgCl2 solution was added instead of the NADPH working solution.
(§15) T1/2 and CLint(mic) were calculated by the following formula.
(§16) [formula] [formula] • CLint(mic)=0.693/T1/2/liver microsomal protein concentration during incubation (mg/mL) • CLint(ver)=CLint(mic)*liver microsomal protein (mg)/liver weight (g)*liver weight to body weight ratio
(§17) Liver microsomal protein (mg)/liver weight (g): the value is 45 in both animal and human species.
(§18) Liver weight to body weight ratio: the parameters for mice, rats and humans are 88, 40 and 20 g/kg respectively.

[3] = Metabolic stability in rat liver microsomes; type: in vitro ADME
Procedure: as §9, §10, §11, §12, §13, §14, §15, §16, §17, §18

[4] = Metabolic stability in human liver microsomes; type: in vitro ADME
Procedure: as §9, §10, §11, §12, §13, §14, §15, §16, §17, §18

[5] = HCT-116, HCT116 cells, 72 h, read-out: IC50

Structure (SMILES) | IC50 (PLK1 kinase) [nM] | Imax (PLK1 kinase) [%] | IC50 (HCT116 cells; [5]) [nM] | efflux ratio at 120 min [1] | Papp at 120 min [1] [×10⁻⁶ cm/s] | Papp A→B at 120 min [1] [×10⁻⁶ cm/s] | Papp B→A at 120 min [1] [×10⁻⁶ cm/s] | Classification Efflux transporter substrate (Caco-2 cells) | further results
CN1CCN(c2ccc(OC(F)(F)F)c(Nc3ncc4c(n3)-c3c(c(C(=O)NS(=O)(=O)C(F)(F)F)nn3CCO)CC4)c2)CC1 [Compound 8] | 14.7 | 95.96 | 3400 | > 30.3 | < 0.5 | < 0.48 | 14.5 | Likely (ERa ≥ 2.00) | –
CN1CCN(c2ccc(OC(F)(F)F)c(Nc3ncc4c(n3)-c3c(c(C(=O)NS(=O)(=O)C5CC5)nn3CCO)CC4)c2)CC1 [Compound 9] | 327 | 72.68 | > 10000 | > 25.4 | < 0.5 | < 0.254 | 6.43 | Likely (ERa ≥ 2.00) | –
CN1CCN(c2ccc(OC(F)(F)F)c(Nc3ncc4c(n3)-c3c(c(C(=O)NO)nn3CCO)CC4)c2)CC1 [Compound 10] | 1.16 | 99.92 | 49 | > 51.7 | < 0.5 | < 0.48 | 24.8 | Likely (ERa ≥ 2.00) | IC50 (HCT116 cells; HCT-116, HCT116 cells, 72 h, read-out: half inhibitory concentration): 49 nM
CN1CCN(c2ccc(OC(F)(F)F)c(Nc3ncc4c(n3)-c3c(c(C(=O)NOCCO)nn3C)CC4)c2)CC1 [Compound 11] | 1.8 | 99.65 | 205 | 22.1 | 0.5 to 2.5 | 1.13 | 25 | Likely (ERa ≥ 2.00) | –
CN1CCN(c2ccc(OC(F)(F)F)c(Nc3ncc4c(n3)-c3c(c(C(=O)NNC(N)=O)nn3C)CC4)c2)CC1 [Compound 12] | – | – | – | > 56.7 | < 0.5 | < 0.264 | 15 | Likely (ERa ≥ 2.00) | IC50 (HCT116 cells; HCT-116, 72 h): 861 nM; 60 min remaining amount [2]: 26.9%; Clearance rate [2]: Medium; CLint scaled at 1 µM ([2]; mouse, pH 7.4): 163 mL/min/kg; half-life at 1 µM ([2]; mouse, pH 7.4): 33.6 min; microsomal CLint at 1 µM ([2]; mouse, pH 7.4, read-out: CLint(mic)): 41.2 µL/min/mg; 60 min remaining amount [3]: 7.43%; Clearance rate [3]: High; CLint scaled at 1 µM ([3]; rat, pH 7.4): 153 mL/min/kg; half-life at 1 µM ([3]; rat, pH 7.4): 16.3 min; microsomal CLint at 1 µM ([3]; rat, pH 7.4, read-out: CLint(mic)): 85 µL/min/mg; 60 min remaining amount [4]: 70.8%; Clearance rate [4]: Medium; CLint scaled at 1 µM ([4]; human, pH 7.4): 10.4 mL/min/kg; half-life at 1 µM ([4]; human, pH 7.4): 119 min; microsomal CLint at 1 µM ([4]; human, pH 7.4, read-out: CLint(mic)): 11.6 µL/min/mg
CN1C2CCC1CN(c1ccc(OC(F)(F)F)c(Nc3ncc4c(n3)-c3c(c(C(N)=O)nn3CCO)CC4)c1)C2 [Compound 23] | 3.66 | 98.18 | 214 | > 82.6 | < 0.5 | < 0.28 | 23.1 | Likely (ERa ≥ 2.00) | –
